In US20120122860A1, “SOLID FORMS OF SULFONAMIDES AND AMINO ACIDS” (Plexxikon, Inc., priority 2009, published 2012):

Legend:
[1] = molecular target: Fms (Homo sapiens, UniProt P07333); experiment: Kinase activity assay, Fms
[2] = molecular target: Kdr (Homo sapiens, UniProt P35968); experiment: Kinase activity assay, Kdr
[3] = molecular target: Kit (Homo sapiens, UniProt P10721); experiment: Kinase activity assay, Kit
[4] = molecular target: B-Raf V600E (Homo sapiens, UniProt P15056, V600E); experiment: Kinase activity assay, B-Raf V600E; format: biochemical; conditions: read-out: activity toward kinase B-Raf V600E, IC50
[5] = molecular target: B-Raf (Homo sapiens, UniProt P15056); experiment: Kinase activity assay, B-Raf; format: biochemical; conditions: read-out: activity toward kinase B-Raf, IC50
[6] = molecular target: C-Raf (Homo sapiens, UniProt P04049); experiment: Kinase activity assay, C-Raf
[7] = molecular target: MAP4K4 (Homo sapiens, UniProt O95819); experiment: Kinase activity assay, MAP4K4
[8] = molecular target: Src (Homo sapiens, UniProt P12931); experiment: Kinase activity assay, Src
Chain of Src (P12931 whole entry): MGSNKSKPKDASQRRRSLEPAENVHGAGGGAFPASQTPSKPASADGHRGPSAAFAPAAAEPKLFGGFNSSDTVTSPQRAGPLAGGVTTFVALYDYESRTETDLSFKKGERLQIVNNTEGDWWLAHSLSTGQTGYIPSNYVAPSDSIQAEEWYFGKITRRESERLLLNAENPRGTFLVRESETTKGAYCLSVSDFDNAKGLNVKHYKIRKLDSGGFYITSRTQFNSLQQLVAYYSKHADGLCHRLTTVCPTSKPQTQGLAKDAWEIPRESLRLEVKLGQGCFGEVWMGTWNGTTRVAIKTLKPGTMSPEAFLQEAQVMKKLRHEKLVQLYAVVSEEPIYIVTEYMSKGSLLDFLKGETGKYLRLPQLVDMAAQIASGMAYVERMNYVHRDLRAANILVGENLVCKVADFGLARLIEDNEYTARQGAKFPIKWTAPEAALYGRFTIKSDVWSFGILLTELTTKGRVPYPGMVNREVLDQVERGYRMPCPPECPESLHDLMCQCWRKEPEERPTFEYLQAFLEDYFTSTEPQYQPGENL

Chain of Fms (P07333 20-972): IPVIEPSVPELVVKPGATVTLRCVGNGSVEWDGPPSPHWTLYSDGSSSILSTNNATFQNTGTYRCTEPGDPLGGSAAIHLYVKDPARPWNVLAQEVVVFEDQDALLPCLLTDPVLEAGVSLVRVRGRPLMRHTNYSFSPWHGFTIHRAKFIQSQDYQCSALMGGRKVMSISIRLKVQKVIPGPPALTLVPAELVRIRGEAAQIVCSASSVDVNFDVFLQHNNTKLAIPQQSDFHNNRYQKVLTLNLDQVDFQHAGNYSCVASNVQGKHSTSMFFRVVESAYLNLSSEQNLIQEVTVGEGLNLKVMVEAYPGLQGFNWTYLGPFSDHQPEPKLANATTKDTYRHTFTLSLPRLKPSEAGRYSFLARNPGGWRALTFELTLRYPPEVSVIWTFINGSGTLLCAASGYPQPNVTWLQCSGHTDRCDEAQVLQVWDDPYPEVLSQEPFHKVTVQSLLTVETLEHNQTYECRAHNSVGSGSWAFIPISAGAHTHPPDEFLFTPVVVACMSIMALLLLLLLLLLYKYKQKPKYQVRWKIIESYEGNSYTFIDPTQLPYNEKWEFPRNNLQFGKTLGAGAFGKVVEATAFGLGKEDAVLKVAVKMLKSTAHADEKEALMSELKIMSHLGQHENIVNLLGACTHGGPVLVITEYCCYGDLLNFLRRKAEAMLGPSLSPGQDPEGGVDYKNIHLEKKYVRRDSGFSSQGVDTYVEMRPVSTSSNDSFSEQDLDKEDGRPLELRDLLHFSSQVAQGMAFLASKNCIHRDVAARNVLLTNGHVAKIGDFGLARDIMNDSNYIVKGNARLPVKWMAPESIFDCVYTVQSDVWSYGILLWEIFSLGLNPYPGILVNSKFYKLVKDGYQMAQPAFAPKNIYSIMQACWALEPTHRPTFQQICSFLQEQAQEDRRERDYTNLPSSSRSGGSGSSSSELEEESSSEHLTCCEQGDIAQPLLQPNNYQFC
Chain of Kdr (P35968 20-1356): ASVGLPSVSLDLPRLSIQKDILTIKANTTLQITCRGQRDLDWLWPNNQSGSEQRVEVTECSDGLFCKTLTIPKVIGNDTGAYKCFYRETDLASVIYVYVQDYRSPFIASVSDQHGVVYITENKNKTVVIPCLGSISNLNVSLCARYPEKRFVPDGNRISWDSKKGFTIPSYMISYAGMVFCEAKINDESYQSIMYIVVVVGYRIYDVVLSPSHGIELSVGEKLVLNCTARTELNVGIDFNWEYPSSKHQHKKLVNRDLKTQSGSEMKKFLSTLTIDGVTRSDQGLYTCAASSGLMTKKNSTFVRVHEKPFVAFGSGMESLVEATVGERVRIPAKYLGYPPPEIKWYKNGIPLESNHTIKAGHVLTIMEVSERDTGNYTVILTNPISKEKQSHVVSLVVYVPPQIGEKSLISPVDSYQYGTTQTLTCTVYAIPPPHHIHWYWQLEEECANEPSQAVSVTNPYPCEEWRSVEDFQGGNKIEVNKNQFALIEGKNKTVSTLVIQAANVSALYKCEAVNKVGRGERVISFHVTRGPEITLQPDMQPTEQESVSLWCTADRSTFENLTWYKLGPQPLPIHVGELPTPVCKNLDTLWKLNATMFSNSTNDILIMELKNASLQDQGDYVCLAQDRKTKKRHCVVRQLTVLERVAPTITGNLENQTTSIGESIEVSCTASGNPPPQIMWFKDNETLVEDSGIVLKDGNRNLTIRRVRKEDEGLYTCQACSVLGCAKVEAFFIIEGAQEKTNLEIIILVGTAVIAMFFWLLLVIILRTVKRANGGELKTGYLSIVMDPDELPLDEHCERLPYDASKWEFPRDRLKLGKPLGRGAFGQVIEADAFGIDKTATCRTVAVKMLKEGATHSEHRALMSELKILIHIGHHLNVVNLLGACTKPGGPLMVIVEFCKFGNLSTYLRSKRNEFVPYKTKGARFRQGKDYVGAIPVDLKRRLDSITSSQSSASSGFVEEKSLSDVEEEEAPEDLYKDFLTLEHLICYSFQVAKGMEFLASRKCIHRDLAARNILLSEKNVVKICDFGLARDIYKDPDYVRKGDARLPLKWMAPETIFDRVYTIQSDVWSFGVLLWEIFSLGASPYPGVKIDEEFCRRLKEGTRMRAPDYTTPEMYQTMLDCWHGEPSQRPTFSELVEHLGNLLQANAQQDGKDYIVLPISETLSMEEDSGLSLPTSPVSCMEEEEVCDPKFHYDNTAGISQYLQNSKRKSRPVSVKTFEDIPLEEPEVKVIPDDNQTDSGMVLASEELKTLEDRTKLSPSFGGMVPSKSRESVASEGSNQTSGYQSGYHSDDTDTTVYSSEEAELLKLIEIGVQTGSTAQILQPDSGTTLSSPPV
Chain of B-Raf V600E (P15056 whole entry V600E): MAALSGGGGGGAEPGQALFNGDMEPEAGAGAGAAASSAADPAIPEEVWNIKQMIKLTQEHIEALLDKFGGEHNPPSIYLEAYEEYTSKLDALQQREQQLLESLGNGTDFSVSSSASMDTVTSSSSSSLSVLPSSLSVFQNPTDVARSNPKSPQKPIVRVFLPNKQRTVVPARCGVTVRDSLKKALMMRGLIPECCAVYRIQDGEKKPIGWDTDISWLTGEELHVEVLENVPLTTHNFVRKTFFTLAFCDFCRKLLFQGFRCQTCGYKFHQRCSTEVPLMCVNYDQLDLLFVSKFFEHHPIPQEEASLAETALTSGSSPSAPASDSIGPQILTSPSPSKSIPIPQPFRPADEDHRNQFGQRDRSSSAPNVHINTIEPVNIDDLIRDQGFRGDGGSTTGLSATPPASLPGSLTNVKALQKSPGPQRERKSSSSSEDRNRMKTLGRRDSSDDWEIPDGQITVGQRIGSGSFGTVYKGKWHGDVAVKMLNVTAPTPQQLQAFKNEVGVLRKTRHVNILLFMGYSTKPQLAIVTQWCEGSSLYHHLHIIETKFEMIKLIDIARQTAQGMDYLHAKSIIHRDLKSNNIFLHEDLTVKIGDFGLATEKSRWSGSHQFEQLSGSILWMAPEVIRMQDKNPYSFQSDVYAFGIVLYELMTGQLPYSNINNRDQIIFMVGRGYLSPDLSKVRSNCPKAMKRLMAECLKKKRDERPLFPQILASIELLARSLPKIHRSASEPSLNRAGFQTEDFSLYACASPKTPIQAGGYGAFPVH
Chain of Kit (P10721 26-976): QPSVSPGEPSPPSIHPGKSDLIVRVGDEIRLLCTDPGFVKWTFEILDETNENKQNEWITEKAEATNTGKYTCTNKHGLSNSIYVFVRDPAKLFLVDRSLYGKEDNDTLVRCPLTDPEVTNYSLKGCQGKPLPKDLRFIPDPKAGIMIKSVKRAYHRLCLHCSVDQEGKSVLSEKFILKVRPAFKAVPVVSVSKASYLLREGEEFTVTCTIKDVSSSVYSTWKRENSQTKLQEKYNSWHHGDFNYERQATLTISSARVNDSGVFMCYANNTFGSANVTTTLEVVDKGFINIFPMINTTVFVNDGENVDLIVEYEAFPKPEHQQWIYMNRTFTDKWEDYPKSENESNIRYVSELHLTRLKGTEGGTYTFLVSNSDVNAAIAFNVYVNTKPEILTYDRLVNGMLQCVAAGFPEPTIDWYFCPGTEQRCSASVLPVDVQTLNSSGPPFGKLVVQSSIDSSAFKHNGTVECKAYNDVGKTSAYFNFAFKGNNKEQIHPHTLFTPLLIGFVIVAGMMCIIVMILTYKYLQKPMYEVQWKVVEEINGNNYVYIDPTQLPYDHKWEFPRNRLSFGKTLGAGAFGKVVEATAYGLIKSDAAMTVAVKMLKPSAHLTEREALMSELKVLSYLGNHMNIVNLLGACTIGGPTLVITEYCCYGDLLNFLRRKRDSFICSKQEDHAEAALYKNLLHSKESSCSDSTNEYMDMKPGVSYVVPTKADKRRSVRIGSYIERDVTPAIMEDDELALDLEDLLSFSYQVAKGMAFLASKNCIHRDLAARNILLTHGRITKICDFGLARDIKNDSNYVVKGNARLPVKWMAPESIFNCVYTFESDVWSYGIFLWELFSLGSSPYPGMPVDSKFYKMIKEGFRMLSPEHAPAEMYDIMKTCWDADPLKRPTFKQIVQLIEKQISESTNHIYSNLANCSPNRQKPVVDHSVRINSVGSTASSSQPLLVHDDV
Chain of B-Raf (P15056 whole entry): as the sequence (P15056 whole entry V600E) above, with E600V counted along it

Structure (SMILES) | IC50 [1] | IC50 [2] | IC50 [3] | IC50 [4] | IC50 [5] | IC50 [6] | IC50 [7] | IC50 [8]
O=C(c1cccc(NS(=O)(=O)c2cccnc2)c1)c1c[nH]c2ncc(F)cc12 [P-2143, Pyridine-3-sulfonic acid [3-(5-fluoro-1H-pyrrolo[2,3-b]pyridine-3-carbonyl)-phenyl]-amide] | ≤ 10 µM | ≤ 10 µM |  |  |  | ≤ 10 µM | ≤ 10 µM | 
CCCS(=O)(=O)Nc1ccc(F)c(C(=O)c2c[nH]c3ncc(-c4cnc(C)nc4)cc23)c1F [P-2211, Propane-1-sulfonic acid {2,4-difluoro-3-[5-(2-methyl-pyrimidin-5-yl)-1H-pyrrolo[2,3-b]pyridine-3-carbonyl]-phenyl}-amide] | ≤ 10 µM | ≤ 10 µM |  | ≤ 10 µM | ≤ 10 µM | ≤ 10 µM | ≤ 10 µM | ≤ 10 µM
CCCS(=O)(=O)Nc1ccc(F)c(C(=O)c2c[nH]c3ncc(-c4cnc(N5CCCC5)nc4)cc23)c1F [P-2219, Propane-1-sulfonic acid {2,4-difluoro-3-[5-(2-pyrrolidin-1-yl-pyrimidin-5-yl)-1H-pyrrolo[2,3-b]pyridine-3-carbonyl]-phenyl}-amide] |  | ≤ 10 µM |  | ≤ 10 µM | ≤ 10 µM | ≤ 10 µM | ≤ 10 µM | ≤ 10 µM
CCCS(=O)(=O)Nc1ccc(F)c(C(=O)c2c[nH]c3ncc(-c4ccc(S(=O)(=O)NCCO)cc4)cc23)c1F [P-2221, 4-{3-[2,6-Difluoro-3-(propane-1-sulfonylamino)-benzoyl]-1H-pyrrolo[2,3-b]pyridin-5-yl}-N-(2-hydroxy-ethyl)-benzenesulfonamide] | ≤ 10 µM | ≤ 10 µM | ≤ 10 µM |  |  |  | ≤ 10 µM | 
CCCS(=O)(=O)Nc1ccc(F)c(C(=O)c2c[nH]c3ncc(-c4ccc(S(=O)(=O)C(C)C)cc4)cc23)c1F [P-2223, Propane-1-sulfonic acid (2,4-difluoro-3-{5-[4-(propane-2-sulfonyl)-phenyl]-1H-pyrrolo[2,3-b]pyridine-3-carbonyl}-phenyl)-amide] |  | ≤ 10 µM | ≤ 10 µM | ≤ 10 µM | ≤ 10 µM | ≤ 10 µM | ≤ 10 µM | ≤ 10 µM
CCCS(=O)(=O)Nc1ccc(F)c(C(=O)c2c[nH]c3ncc(-c4nn[nH]n4)cc23)c1F [P-2242, Propane-1-sulfonic acid {2,4-difluoro-3-[5-(2H-tetrazol-5-yl)-1H-pyrrolo[2,3-b]pyridine-3-carbonyl]-phenyl}-amide] | ≤ 10 µM | ≤ 10 µM | ≤ 10 µM |  |  |  | ≤ 10 µM | ≤ 10 µM
CCS(=O)(=O)Nc1ccc(F)c(C(=O)c2c[nH]c3ncc(-c4ccc(Cl)cc4)cc23)c1F [P-2269, Ethanesulfonic acid {3-[5-(4-chloro-phenyl)-1H-pyrrolo[2,3-b]pyridine-3-carbonyl]-2,4-difluoro-phenyl}-amide] |  | ≤ 10 µM |  |  |  |  | ≤ 10 µM | 
CCS(=O)(=O)Nc1ccc(F)c(C(=O)c2c[nH]c3nccc(OC)c23)c1F [P-2279, Ethanesulfonic acid [2,4-difluoro-3-(4-methoxy-1H-pyrrolo[2,3-b]pyridine-3-carbonyl)-phenyl]-amide] |  | ≤ 10 µM |  | ≤ 10 µM | ≤ 10 µM | ≤ 10 µM | ≤ 10 µM | 
CCCCS(=O)(=O)Nc1ccc(F)c(C(=O)c2c[nH]c3ncc(-c4ccc(Cl)cc4)cc23)c1F [P-2300, Butane-1-sulfonic acid {3-[5-(4-chloro-phenyl)-1H-pyrrolo[2,3-b]pyridine-3-carbonyl]-2,4-difluoro-phenyl}-amide] | ≤ 10 µM | ≤ 10 µM | ≤ 10 µM |  |  |  | ≤ 10 µM | ≤ 10 µM
Cc1cnc2[nH]cc(C(=O)c3c(F)ccc(NS(=O)(=O)C4CCCCC4)c3F)c2c1 [P-2360, Cyclohexanesulfonic acid [2,4-difluoro-3-(5-methyl-1H-pyrrolo[2,3-b]pyridine-3-carbonyl)-phenyl]-amide] |  | ≤ 10 µM | ≤ 10 µM | ≤ 10 µM | ≤ 10 µM | ≤ 10 µM | ≤ 10 µM | ≤ 10 µM
O=C(c1cccc(NS(=O)(=O)C2CCCCC2)c1)c1c[nH]c2ncc(Cl)cc12 [P-2452, Cyclohexanesulfonic acid [3-(5-chloro-1H-pyrrolo[2,3-b]pyridine-3-carbonyl)-phenyl]-amide] | ≤ 10 µM | ≤ 10 µM | ≤ 10 µM | ≤ 10 µM |  |  | ≤ 10 µM | 
O=C(c1cccc(NS(=O)(=O)C2CCCC2)c1)c1c[nH]c2ncc(Cl)cc12 [P-2453, Cyclopentanesulfonic acid [3-(5-chloro-1H-pyrrolo[2,3-b]pyridine-3-carbonyl)-phenyl]-amide] | ≤ 10 µM | ≤ 10 µM | ≤ 10 µM | ≤ 10 µM |  |  | ≤ 10 µM | 
Cc1cnc2[nH]cc(C(=O)c3cccc(NS(=O)(=O)C4CCCCC4)c3)c2c1 [P-2458, Cyclohexanesulfonic acid [3-(5-methyl-1H-pyrrolo[2,3-b]pyridine-3-carbonyl)-phenyl]-amide] | ≤ 10 µM | ≤ 10 µM | ≤ 10 µM |  |  |  | ≤ 10 µM | 
Cc1cnc2[nH]cc(C(=O)c3cccc(NS(=O)(=O)C4CCCC4)c3)c2c1 [P-2459, Cyclopentanesulfonic acid [3-(5-methyl-1H-pyrrolo[2,3-b]pyridine-3-carbonyl)-phenyl]-amide] |  | ≤ 10 µM | ≤ 10 µM |  |  |  | ≤ 10 µM | 
O=C(O)CCc1cccc(-c2cnc3[nH]cc(C(=O)c4cccc(NS(=O)(=O)C5CCCC5)c4)c3c2)c1 [P-2466, 3-{3-[3-(3-Cyclopentanesulfonylamino-benzoyl)-1H-pyrrolo[2,3-b]pyridin-5-yl]-phenyl}-propionic acid] |  | ≤ 10 µM | ≤ 10 µM | ≤ 10 µM |  |  | ≤ 10 µM | ≤ 10 µM

Results, then the compound that gave them:

IC50 [1] | IC50 [2] | IC50 [3] | IC50 [4] | IC50 [5] | IC50 [6] | IC50 [7] | IC50 [8] | Structure (SMILES)
≤ 10 µM | ≤ 10 µM | ≤ 10 µM | ≤ 10 µM | ≤ 10 µM | ≤ 10 µM | ≤ 10 µM |  | O=C(CCCCC1SCC2NC(=O)NC21)NCCCCCNC(=O)CCc1cnc2[nH]cc(C(=O)c3c(F)ccc(NS(=O)(=O)c4ccc(C(F)(F)F)cc4)c3F)c2c1 (centres unmarked) [P-2008, 5-(2-Oxo-hexahydro-thieno[3,4-d]imidazol-6-yl)-pentanoic acid [5-(3-{3-[2,6-difluoro-3-(4-trifluoromethyl-benzenesulfonylamino)-benzoyl]-1H-pyrrolo[2,3-b]pyridin-5-yl}-propionylamino)-pentyl]-amide]
 | ≤ 10 µM | ≤ 10 µM | ≤ 10 µM | ≤ 10 µM | ≤ 10 µM | ≤ 10 µM | ≤ 10 µM | Cc1cnc2[nH]cc(C(=O)c3c(F)ccc(NS(=O)(=O)c4ccc(F)cc4F)c3F)c2c1 [P-2025, N-[2,4-Difluoro-3-(5-methyl-1H-pyrrolo[2,3-b]pyridine-3-carbonyl)-phenyl]-2,4-difluoro-benzenesulfonamide]
 | ≤ 10 µM | ≤ 10 µM | ≤ 10 µM | ≤ 10 µM | ≤ 10 µM | ≤ 10 µM | ≤ 10 µM | O=C(c1c(F)ccc(NS(=O)(=O)c2ccc(F)cc2)c1F)c1c[nH]c2nccc(Cl)c12 [P-2026, N-[3-(4-Chloro-1H-pyrrolo[2,3-b]pyridine-3-carbonyl)-2,4-difluoro-phenyl]-4-fluoro-benzenesulfonamide]
 | ≤ 10 µM | ≤ 10 µM | ≤ 10 µM | ≤ 10 µM | ≤ 10 µM | ≤ 10 µM | ≤ 10 µM | O=C(c1c(F)ccc(NS(=O)(=O)c2c(F)cccc2F)c1F)c1c[nH]c2nccc(Cl)c12 [P-2033, N-[3-(4-Chloro-1H-pyrrolo[2,3-b]pyridine-3-carbonyl)-2,4-difluoro-phenyl]-2,6-difluoro-benzenesulfonamide]
 | ≤ 10 µM | ≤ 10 µM | ≤ 10 µM | ≤ 10 µM | ≤ 10 µM | ≤ 10 µM | ≤ 10 µM | O=C(c1c(F)ccc(NS(=O)(=O)c2ccc(F)cc2F)c1F)c1c[nH]c2nccc(Cl)c12 [P-2034, N-[3-(4-Chloro-1H-pyrrolo[2,3-b]pyridine-3-carbonyl)-2,4-difluoro-phenyl]-2,4-difluoro-benzenesulfonamide]
 |  |  |  |  |  | ≤ 10 µM | ≤ 10 µM | O=C(c1c(F)ccc(NS(=O)(=O)c2cccnc2)c1F)c1c[nH]c2nccc(Cl)c12 [P-2074, Pyridine-3-sulfonic acid [3-(4-chloro-1H-pyrrolo[2,3-b]pyridine-3-carbonyl)-2,4-difluoro-phenyl]-amide]
≤ 10 µM | ≤ 10 µM |  |  |  |  | ≤ 10 µM | ≤ 10 µM | Cc1cnc2[nH]cc(C(=O)c3cc(NS(=O)(=O)c4cccnc4)ccc3F)c2c1 [P-2137, Pyridine-3-sulfonic acid [4-fluoro-3-(5-methyl-1H-pyrrolo[2,3-b]pyridine-3-carbonyl)-phenyl]-amide]
≤ 10 µM | ≤ 10 µM | ≤ 10 µM |  |  |  | ≤ 10 µM |  | Cc1cnc2[nH]cc(C(=O)c3cccc(NS(=O)(=O)c4cccnc4)c3)c2c1 [P-2141, Pyridine-3-sulfonic acid [3-(5-methyl-1H-pyrrolo[2,3-b]pyridine-3-carbonyl)-phenyl]-amide]
